Source: patent US20240043928A1, “BIOMARKERS FOR MYELODYSPLASTIC SYNDROME (MDS) AND METHODS OF USING THE SAME” (Eisai R&D Management Co., Ltd., priority 2020, published 2024)

Tests used:
[1] = test system: patients with myelodysplastic syndrome (MDS), chronic myelomonocytic leukemia (CMML), or acute myeloid leukemia (AML); assay: Phase I study NCT02841540: clinical response and transfusion independence; format: in vivo, human
Protocol: Clinical responses were assessed using the 2006 International Working Group (IWG) response criteria for MDS (Cheson et al. Blood. 2006;108:419-425), the IWG 2003 criteria for AML, and the 2015 international consortium proposal of uniform response criteria for myelodysplastic/myeloproliferative neoplasms (MDS/MPN) and CMML (Savona et al. Blood. 2015;125(12):1857-1865). Peripheral blood sampling, bone marrow aspirates, bone marrow biopsies, marrow cytogenetics, and cellular composition by flow cytometry were performed at the time of screening, and after Cycles 1, 2, and 4. Beyond Cycle 4, bone marrow aspirates were performed as clinically indicated based on changes in peripheral blood count, or as needed to establish either complete response or disease progression. An independent central confirmation and interpretation was performed for disease assessments.

[2] = test system: TMEM14C AJ/CJ ratio and other splicing markers; assay: Phase I study NCT02841540: pharmacodynamics, splicing markers in peripheral blood (Nanostring nCounter panel); format: in vivo, human
Protocol: Plasma samples for PK analyses were collected during Cycle 1 on Day 1 and Day 4 (pre-dose and 0.5, 1, 2, 4, 6, 8, 10, and 24 hours post-dose), and pre-dose and 4 hours post-dose on Cycle 1 on Day 15. PK analyses were conducted using Phoenix® VVinNonlin. For pharmacodynamic and biomarker analyses, peripheral blood samples were collected into PAXgene® Blood RNA Tubes (BD Biosciences, San Jose, California) at Cycle 1 Day 1 (pre-dose and 1, 2, 4, 10 and 24 hours post-dose) for all patients. RNA was extracted using Maxwell® simplyRNA Blood Kit (Promega, Madison, Wisconsin). Target engagement (i.e., splicing modulation) was measured by assessing relative expression of representative pre- and mature-mRNA or aberrant and canonical transcripts at post-dose time points comparing to pre-dose, using a customized Nanostring nCounter gene expression panel (NanoString Technologies, Seattle, Washington). For splicing mutation analysis, peripheral blood was collected into PAXgene® Blood DNA Tubes (BD Biosciences, San Jose, California). Baseline splicing mutations were identified using the Focus:Myeloid™ Next Generation Sequencing (NGS) panel determined centrally by Cancer Genetics Inc. (Rutherford, NJ). Biomarker analyses of pretreatment samples were conducted using one-way ANOVA and MedCalc® software. Receiver-Operating-Characteristics (ROC) curves were performed according to the methodology described by Hanley and McNeil (Radiology. 1982;143(1):29-36; see also Zweig and Campbell, Clin Chem. 1993;39(4):561-577).

[3] = test system: human acute myeloid leukemia (AML) cell lines, including mutant U2AF1, SRSF2, and SF3B1 cells; conditions: panel of human AML cell lines incl. mutant U2AF1, SRSF2, SF3B1 cells; cited from earlier work
[4] = test system: xenograft models of leukemia expressing mutant SF3B1; conditions: oral administration; cited from earlier work
[5] = patient: CMML, IPSS Lower, starting dose 7 mg
[6] = patient: MDS (baseline Hb 9.1 g/dL), IPSS Lower, starting dose 5 mg
[7] = patient: MDS, IPSS Higher, starting dose 2 mg
[8] = patient: MDS, IPSS Higher, starting dose 7 mg
[9] = patient: MDS, IPSS Lower, donor one, starting dose 7 mg
[10] = patient: MDS, IPSS Lower, starting dose 2 mg (7 mg during last two RBC TI periods)
[11] = patient: MDS, IPSS Lower, starting dose 3.5 mg
[12] = patient: MDS/MPN (RARS-T), IPSS Lower, starting dose 2 mg
[13] = patients who experienced RBC TI

In the case of `C/C(=C\C=C\[C@@H](C)c1ccccn1)[C@H]1OC(=O)C[C@H](O)CC[C@@](C)(O)[C@@H](OC(=O)N2CCN(C)CC2)/C=C/[C@@H]1C` [Compound 1, (2S,3S,4E,6S,7R,10R)-7,10-dihydroxy-3,7-dimethyl-12-oxo-2-[(2E,4E,6R)-6-(pyridine-2-yl)hepta-2,4-dien-2-yl]oxacyclododec-4-en-6-yl-4-methylpiperazine-1-carboxylate], the “RBC TI periods” value ([1]; 4 patients with SF3B1 mutations and a diagnosis of AML) is reported as “No RBC TI periods were observed”, the “patients who experienced events of RBC TI” value ([1]; 5 of the 7 MDS patients with pre-treatment TMEM14C AJ/CJ >4.01) is reported as 71% and the “patients who experienced RBC TI events” value ([1]; 5 of the 20 patients with missense SF3B1 mutations at study entry) is reported as 25%. The “patients with intervals of >56 days without RBC transfusions” value ([1]; 9 of 62 patients transfusion dependent at study entry, as of April 2020, all Schedule I) was 15%, the “RBC TI rate” value ([1]; CMML (1 subject)) was 25% and the “RBC TI rate” value ([1]; MDS (8 cases)) was 19%. The “complete or partial responses meeting 2006 IWG criteria” value ([1]; all patients) was “No complete or partial responses”, the “Median duration of RBC TI” value ([1]; human, in vivo) was 13 weeks and the “Median time to onset of RBC TI” value ([1]; human, in vivo) was 15 weeks. For the same molecule, the “additional RBC TI cases, transfusion dependence prior to study entry not verified” value ([1]; human, in vivo) was “Two additional patients (1 AML, 1 MDS) experienced RBC TI periods of >56 days”, the “clinical benefit (platelet response) (MDS/MPN criteria)” value ([1]; in the 4 subjects with CMML) was 1 and the “complete cytogenetic remission (MDS/MPN criteria)” value ([1]; in the 4 subjects with CMML) was 1. The “patients who experienced RBC TI at the 7 mg dose” value ([1]; of the patients with RBC TI) was “Four of the 9”, the “patients whose first RBC TI initiated in weeks 1-24 of the study” value ([1]; of the patients with RBC TI) was 8 of the 9 and the “platelet transfusion independence without RBC TI” value ([1]; one higher risk MDS patient, 7 mg, Schedule II) was 22 week. For the same molecule, the “Longest RBC TI Period” value [1, 5] was 66 days, the “Number of RBC TI Periods” value [1, 5] was 1 and the “Time to First RBC TI” value [1, 5] was 4 days. The “Longest RBC TI Period” value [1, 6] was 87 days, the “Number of RBC TI Periods” value [1, 6] was 1 and the “Time to First RBC TI” value [1, 6] was 398 days. For the same molecule, the “Longest RBC TI Period” value [1, 7] was 121 days, the “Number of RBC TI Periods” value [1, 7] was 1 and the “Time to First RBC TI” value [1, 7] was 126 days. For the same molecule, the “Longest RBC TI Period” value [1, 8] was 107 days, the “Number of RBC TI Periods” value [1, 8] was 1 and the “Time to First RBC TI” value [1, 8] was 104 days. For the same molecule, the “Longest RBC TI Period” value [1, 9] was 98 days, the “Number of RBC TI Periods” value [1, 9] was 4 and the “Time to First RBC TI” value [1, 9] was 73 days. The “Longest RBC TI Period” value [1, 10] was 85 days, the “Number of RBC TI Periods” value [1, 10] was 5 and the “Time to First RBC TI” value [1, 10] was 88 days. For the same molecule, the “Longest RBC TI Period” value [1, 11] was 98 days, the “Number of RBC TI Periods” value [1, 11] was 2 and the “Time to First RBC TI” value [1, 11] was 101 days. For the same molecule, the “Longest RBC TI Period” value [1, 12] was 56 days, the “Number of RBC TI Periods” value [1, 12] was 1 and the “Time to First RBC TI” value [1, 12] was 111 days. For the same molecule, the “period of platelet transfusion independence” value ([1]; the CMML patient with RBC TI) was 21 week, the “modulation of splicing markers post-dosing” value ([2]; PBMC samples, NanoString probes, 61 splicing markers) was “general modulation of splicing markers post-dosing was observed” and the “modulation of relative expression of splicing markers” value ([2]; heat map, FIG. 5) was “dose-dependent modulation”. For the same molecule, the “change of the TMEM14C AJ/CJ ratio with dosing” value [2, 13] was “Downregulation”, the “time of nadir of the TMEM14C AJ/CJ ratio” value [2, 13] was 2 to 10 h and the growth inhibitory activity [3] was “shows growth inhibitory activity”. For the same molecule, the “in vivo antitumor activity” value [4] was “induces in vivo antitumor activity”.
